1 compound from patent publication US20210332024A1, “MODULATORS OF PIN1 ACTIVITY AND USES THEREOF” (Yeda Research and Development Co. Ltd., priority 2019, published 2021) can be followed below.

Data set [1] concerns PDAC organoids. Description: PDAC organoid growth. It is filed as cell-based, human. The note with it: treated for 7 days. The method, then: (§1) Pancreatic ductal adenocarcinoma (PDAC) cells (derived from a human patient) were treated with Pin1-3 for 3 days. PDAC organoids were treated with Pin1-3 for 7 days (day 7 to day 14).
For data set [2], the system named is 300 suspension and hematopoietic human cancer cell lines. In words: PRISM anti-proliferative profiling. It is filed as cell-based. The settings on record: 120 h, all 300 cancer cell lines, 5-day treatment. The text has this:
In order to profile the anti-proliferative activity of Pin1-3, the compound was submitted to the PRISM platform (Broad Institute) to evaluate its potency against 300 suspension and hematopoietic human cancer cell lines. The PRISM method enables high-throughput, pooled screening of mixtures of cell lines, which are each labeled with a 24-nucleotide barcode [Yu et al., Nat Biotechnol 2016, 34:419-423].

For data set [3], the target named is T1, Pin1 in IMR32 cells (Homo sapiens, UniProt Q13526).
T1 construct: endogenous in cells; host or cells: IMR32
T1 sequence (Q13526 whole entry): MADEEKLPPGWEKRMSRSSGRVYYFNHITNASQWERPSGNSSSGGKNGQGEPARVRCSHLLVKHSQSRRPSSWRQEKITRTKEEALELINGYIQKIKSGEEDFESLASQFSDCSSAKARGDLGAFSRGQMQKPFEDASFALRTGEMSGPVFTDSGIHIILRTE
Description: Live cell competition assay with Pin1-3-DTB pull-down, IMR32 cells. It is filed as cell-based. The note with it: IMR32 cells. The method, then: The indicated cells were treated with increasing concentrations of either DMSO, Pin1-3, or Pin1-3-AcA for 5 hours. Cells were harvested by scraping and washed twice with PBS before lysis with 50 mM HEPES (pH 7.4), 1 mM EDTA, 10% glycerol, 1 mM TCEP, 150 mM NaCl, 1 mM EDTA, 0.5% NP-40, and protease inhibitor tablet (Roche cat. #4693159001). After clarifying (14,000 rpm for 15 minutes), samples were treated with the indicated concentrations of Pin1-3-DTB at 4° C. for 1 hour. Lysates were then incubated with streptavidin agarose resin (Thermo Scientific, cat. #20349) for 1.5 hour at 4° C. Beads were washed four times with 500 μl of washing buffer (50 mM HEPES (pH 7.5), 10 mM NaCl, 1 mM EDTA, 10% glycerol), then pelleted by centrifugation and dried. The beads were boiled for 5 minutes at 95° C. in 2×LDS+10% β-mercaptoethanol. Proteins of interest were then assessed via Western blotting using the bolt system (Life Technologies).
The indicated cells were plated in 10 cm plates with 2.5 million cells per plate in 6 ml of medium. The day after plating, cells were treated with the indicated concentrations of candidate inhibitor for the indicated time points. The cells were then washed two times with cold phosphate buffer saline (1 ml per 10 cm plate) and collected by scraping with a cell scraper. […]

Data set [4] relates to MDA-MB-468 breast adenocarcinoma cells. In words: Prolonged-treatment cell growth, MDA-MB-468. The class given is cell-based. The note with it: MDA-MB-468, 1 or 2.5 μM. The method, then: The ability of Pin1-3 treatment to induce more pronounced anti-proliferative effects after prolonged treatment (6-8 days) was then assessed. In order to ensure that target engagement was maintained for the duration of the experiment, Pin1-3 was replenished in fresh media every 48 hours.

Data set [5] has as its system Pancreatic ductal adenocarcinoma (PDAC) cells. Description: PDAC cell growth. It is filed as cell-based, human. The settings on record: treated for 3 days. As to the method:
as §1

In data set [6] the test system is MYCN-overexpressing PSNS neuroblasts. In words: Zebrafish embryo model of MYCN-driven neuroblastoma. It is filed as in vivo. The text has this:
Zebrafish were used for a model of childhood neuroblastoma, in which the tissue-specific overexpression of the human MYCN transgene using the dopamine β hydroxylase (dβh) promoter in the zebrafish peripheral sympathetic nerve system (PSNS) drives neuroblastoma tumorigenesis in zebrafish [Zhu et al., Cancer Cell 2012, 21:362-373]. The fish are also transgenic for a PSNS-specific dβh:EGFP reporter line, so that the tumors can be visualized by EGFP. In this model, hyperproliferation of sympathetic neuroblasts is evident in the […] (counterpart of the adrenal medulla) starting at 4 days post-fertilization (dpf).
Zebrafish embryos at 3 dpf were treated with different concentrations of the test compound in the egg water (reverse osmosis or RO water with 0.6 gm/liter instant ocean salts) for 4 days. The embryos were transferred to egg water containing freshly diluted drug after 2 days (5 dpf). The embryos were then imaged at 7 dpf, and the relative EGFP+MYCN-overexpressing neuroblast cross-sectional area for each experimental group was quantified.
The effect of Pin1-binding […] on neuroblastoma cells was assessed using a zebrafish embryo model of neuroblastoma, using procedures described in the Materials and Methods section hereinabove. Neuroblastoma is a pediatric malignancy derived from the peripheral sympathetic nervous system (PSNS). […] Overexpression of the MYCN oncogene, which is the oncogenic driver in approximately 20% of human high-risk neuroblastomas, in the PSNS of Tg(dβh:MYCN;dβh:EGFP) transgenic zebrafish, causes the fish to develop neuroblast hyperplasia (as shown, for example, in FIG. 42), which rapidly progress into fully transformed tumors that faithfully resemble human high-risk neuroblastoma [Zhu et al., Cancer Cell 2012, 21:362-373; He et al., Elife 2016, 5; Zimmerman et al., Cancer Discov 2016, 8:320-335].

For data set [7], the system named is cysteine residues on a proteome-wide scale, PATU-8988T cells. Description: CITe-Id chemoproteomic selectivity experiment. The class given is cell-based. The settings on record: PATU-8988T cells, 100, 500 or 1000 nM for 5 hours. The method, then: In order to profile the selectivity of Pin1-3, a Covalent Inhibitor Target-site Identification (CITe-Id) experiment [Browne et al., […] 2019, 141, 191-203] was performed, as depicted in FIG. 28.
This chemoproteomic platform enables the identification and quantification of the dose-dependent binding of covalent inhibitors to cysteine residues on a proteome-wide scale. In this competition experiment, live PATU-8988T cells were incubated with Pin1-3 (100, 500 or 1000 nM) for 5 hours, followed by cell lysis and co-incubation with Pin1-3-DTB (2 μM) for 18 hours. Following trypsin digest and avidin enrichment, the DTB-modified peptides were analyzed by shotgun LC-MS/MS.

Data set [8] can be described thus: Acute toxic model. It is filed as in vivo, mice. The settings on record: 10, 20 or 40 mg/kg intraperitoneally every day for two weeks. As to the method: Toxicity of Pin1-3 was then evaluated in an acute toxic model. Mice were injected with 10, 20 or 40 mg/kg Pin1-3 intraperitoneally every day for two weeks.

For orientation: IC50 means the concentration that inhibits the measured activity by half. Read a high IC50 as lower potency. For the compound `CC(C)(C)CN(C(=O)CCl)C1CCS(=O)(=O)C1` (stereo not drawn) [Pin1-3, 2-chloro-N-(sulfolan-3-yl)-N-neopentylacetamide], the PDAC organoid growth result in data set [1] is “inhibited PDAC organoid growth in a dose-dependent manner”. Moreover, the IC50 in data set [2] is above 3 µM. In addition, the “Concentration of full engagement of Pin1” value in data set [3] amounted to 1 µM. The Cell growth entry in data set [4] is “long-term inhibition”. Further, the PDAC cell growth result in data set [5] is listed as “inhibited tumor growth of PDAC cells in a dose-dependent manner”. The “Cross-section of the EGFP-expressing PSNS cells” value in data set [6] (100 μM for 4 days) was “indistinguishable from that of controls without hyperproliferation”. For the same compound, the Toxicity in embryos entry in data set [6] (25 to 100 μM in the egg water) is given as “no evidence of toxicity”. In addition, in data set [6] (25 to 100 μM in the egg water, 3 to 7 dpf), the “Hyperproliferation of MYCN-overexpressing PSNS neuroblasts” value was “suppressed the hyperproliferation of MYCN-overexpressing PSNS neuroblasts”. Moreover, in data set [7], the “Dose-dependent competition among 162 cysteine residues labeled by Pin1-3-DTB” value is on record as “only Pin1 Cys113 exhibited dose-dependent competition”. Moreover, in data set [8], the Adverse effects entry is reported as “No adverse effects”, the Post-mortem examination entry is “no pathologies” and the Weight result is recorded as “normal”.
